# Patent publication US8772499B2, “TRPV3 modulators” (AbbVie Inc., priority 2011, dated 2014)
# Where two headings read alike, the source gives them in different places.
# Legend:
# human TRPV3 = target: T1, human TRPV3 (Homo sapiens, UniProt Q8NET8); test: In vitro antagonism of recombinant human TRPV3 activation (FLIPR Tetra calcium assay); format: cell-based; details: HEK293 cells stably expressing human TRPV3, agonist 2-APB at 80 μM
# T1 construct: expressed in transfected cells
# T1 sequence (Q8NET8 1-790): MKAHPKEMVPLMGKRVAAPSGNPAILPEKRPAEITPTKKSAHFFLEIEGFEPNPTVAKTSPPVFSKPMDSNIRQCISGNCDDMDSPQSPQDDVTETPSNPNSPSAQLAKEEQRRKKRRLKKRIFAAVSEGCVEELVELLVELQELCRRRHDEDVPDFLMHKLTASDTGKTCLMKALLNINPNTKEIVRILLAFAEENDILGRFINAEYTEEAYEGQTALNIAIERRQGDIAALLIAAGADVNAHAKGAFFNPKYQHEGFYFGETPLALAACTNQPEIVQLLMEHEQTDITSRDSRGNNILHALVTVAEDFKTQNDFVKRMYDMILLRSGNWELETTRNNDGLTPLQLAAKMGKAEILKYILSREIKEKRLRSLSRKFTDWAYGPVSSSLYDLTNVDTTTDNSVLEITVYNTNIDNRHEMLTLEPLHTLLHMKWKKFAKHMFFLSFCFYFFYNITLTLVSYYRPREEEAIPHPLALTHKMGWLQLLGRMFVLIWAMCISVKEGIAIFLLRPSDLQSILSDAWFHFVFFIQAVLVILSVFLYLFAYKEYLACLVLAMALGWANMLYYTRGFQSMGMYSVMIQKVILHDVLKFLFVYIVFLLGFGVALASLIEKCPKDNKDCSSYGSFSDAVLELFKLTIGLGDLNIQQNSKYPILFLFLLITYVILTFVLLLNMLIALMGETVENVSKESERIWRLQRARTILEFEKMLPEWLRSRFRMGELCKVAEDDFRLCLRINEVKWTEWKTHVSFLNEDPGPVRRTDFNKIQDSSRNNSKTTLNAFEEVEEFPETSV
# Outline: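 Calcium flux read over a 10 min run: compound added at 10 s to Calcium-4-loaded human TRPV3-HEK293 cells, agonist 2-APB (80 μM, its EC80) after 3 min. IC50 derived from peak-minus-baseline signal as percentage of uninhibited 2-APB response, typically averaged over at least two runs.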
# [1] = In vitro rat microsomal stability assay; format: in vitro ADME, rat (Sprague-Dawley); details: Sprague-Dawley, rat, microsomes, 0.5 h, 0.5 μM, pH 7.4
# Outline: (§1)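 Compound incubated at 37 °C with NADPH-supplemented liver microsomes, either human or from Sprague-Dawley rat, to assess metabolic stability.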
# [2] = In vitro human microsomal stability assay; format: in vitro ADME; details: human, microsomes, 0.5 h, 0.5 μM, pH 7.4
# Outline: as §1
# [3] = actual measured value shown parenthetically, in most cases average of at least two runs, read-out: IC50
# [4] = reported range, read-out: IC50 (range class)
SMILES,IC50 (human TRPV3; [3]) [µM],RAT MICROSOMAL STABILITY (% REMAINING AFTER 30 MINUTES) [1] [%],HUMAN MICROSOMAL STABILITY (% REMAINING AFTER 30 MINUTES) [2] [%],IC50 (human TRPV3; [4]) [µM]
"Cc1ccccc1C(C)C1(C(O)c2ccccn2)CCC1 (centres unmarked) [Example 45, {1-[1-(2-methylphenyl)ethyl]cyclobutyl}(pyridin-2-yl)methanol]",2.22,0.02,0.03,–
"O[C@H](c1ccccn1)[C@]1(c2ccc(C(F)(F)F)cc2)C[C@H](O)C1 [Example 200, cis-3-[(S)-hydroxy(pyridin-2-yl)methyl]-3-[4-(trifluoromethyl)phenyl]-cyclobutanol]",5.25,>85,>85,–
"O=C1CC(c2ccc(F)c(Cl)c2)([C@H](O)c2ccccn2)C1 (single isomer, unassigned) [Example 268]",2.13,82,66,–
"OC(c1ccccn1)C1(c2ccc(C(F)(F)F)cc2)CNC1 (centres unmarked) [Example 152, pyridin-2-yl{3-[4-(trifluoromethyl)phenyl]azetidin-3-yl}methanol]",19.7,>85,>85,–
"CC(C)(C)OC(=O)N1CCC(C2(C(O)c3ccccn3)CCC2)CC1 (centres unmarked) [Example 279, tert-butyl 4-{1-[hydroxy(pyridin-2-yl)methyl]cyclobutyl}piperidine-1-carboxylate]",7.5,<0.01,22,–
"O=C1CC(c2cncc(C(F)(F)F)c2)(C(O)c2ccccn2)C1 (centres unmarked) [Example 295, 3-[hydroxy(pyridin-2-yl)methyl]-3-[5-(trifluoromethyl)pyridin-3-yl]-cyclobutanone]",> 20,8.2,70,> 20
"OC(c1ccccn1)C1(c2cccc(C(F)(F)F)c2)CCCO1 (single isomer, unassigned) [Example 106, (anti)-pyridin-2-yl{2-[3-(trifluoromethyl)phenyl]tetrahydrofuran-2-yl}-methanol]",0.21,1.6,3.9,–
"OC(c1ccccn1)C1(C2CCOc3ccccc32)CCC1 (centres unmarked) [Example 57, [1-(3,4-dihydro-2H-chromen-4-yl)cyclobutyl](pyridin-2-yl)methanol]",9.29,10,16,–
"CN(C)N=C1CC(c2ccc(OC(F)(F)F)cc2)([C@H](O)c2ccccn2)C1 (stereo partly drawn) [Example 267, (S)-{3-(dimethylhydrazinylidene)-1-[4-(trifluoromethoxy)phenyl]-cyclobutyl}(pyridin-2-yl)methanol]",2.41,10,64,–
"OC(c1ccccn1)C1(c2ccc(F)c(C(F)(F)F)c2)CCC1 (centres unmarked) [Example 15, {1-[4-fluoro-3-(trifluoromethyl)phenyl]cyclobutyl}(pyridin-2-yl)methanol]",0.31,1.2,5.6,–
"OC(c1ccccn1)C1(C2CCOC2)CCC1 (centres unmarked) [Example 284, pyridin-2-yl[1-(tetrahydrofuran-3-yl)cyclobutyl]methanol]",> 20,16,>85,> 20
"OC(CC1(c2cccc(OC(F)(F)F)c2)CCC1)c1ccccn1 (centres unmarked) [Example 77, 1-(pyridin-2-yl)-2-{1-[3-(trifluoromethoxy)phenyl]cyclobutyl}ethanol]",0.76,0.94,11,–
"O[C@@H](c1ccccn1)C1(c2ccc(OC(F)(F)F)cc2)CC(F)(F)C1 [Example 159, (R)-{3,3-difluoro-1-[4-(trifluoromethoxy)phenyl]cyclobutyl}(pyridin-2-yl)-methanol]",1.98,65,45,–
"OC(c1ccccn1)C1(c2ccccc2F)CCCO1 (stereo not drawn) [Example 103, (syn)-[2-(2-fluorophenyl)tetrahydrofuran-2-yl](pyridin-2-yl)methanol]",2,0.012,73,–
"Cc1ccccc1C1(C(O)c2ccccn2)CCCO1 (centres unmarked) [Example 90, [2-(2-methylphenyl)tetrahydrofuran-2-yl](pyridin-2-yl)methanol]",0.46,<0.01,35,–
"OC1CC(c2ccc(OC(F)(F)F)cc2)(C(O)c2ccccn2)C1 (single isomer, unassigned) [Example 132]",9.33,72,81,–
"O[C@@H](c1ncccn1)C1(c2ccc(Cl)c(Cl)c2)CCC1 [Example 40, (R)-[1-(3,4-dichlorophenyl)cyclobutyl](pyrimidin-2-yl)methanol]",13.3,5.6,68,–
"OC1CC(c2cc(C(F)(F)F)ccn2)(C(O)c2ccccn2)C1 [Example 282, cis-3-[(S)-hydroxy(pyridin-2-yl)methyl]-3-[4-(trifluoromethyl)pyridin-2-yl]cyclobutanol]",0.74,>85,>85,–
"OC(c1ccccn1)C1(c2ccccc2F)CCC1 (centres unmarked) [Example 1, [1-(2-fluorophenyl)cyclobutyl](pyridin-2-yl)methanol]",1.5,0.48,0.38,–
"OC(C1CCc2cccnc21)C1(c2ccc(Cl)c(Cl)c2)CCC1 (stereo not drawn) [Example 168, (syn)-[1-(3,4-dichlorophenyl)cyclobutyl][6,7-dihydro-5H-cyclopenta[b]-pyridin-7-yl]methanol]",9.14,<0.01,5.6,–
"CC(c1ccc(F)cc1)C1(C(O)c2ccccn2)CCC1 (centres unmarked) [Example 46, {1-[1-(4-fluorophenyl)ethyl]cyclobutyl}(pyridin-2-yl)methanol]",13.7,0.23,11,–
"Nc1cccnc1C(O)C1(c2ccc(C(F)(F)F)cc2)CCC1 (centres unmarked) [Example 127, (3-aminopyridin-2-yl) {1-[4-(trifluoromethyl)phenyl]cyclobutyl}methanol]",11.6,1.1,51,–
"OC(c1ccccn1)C1(c2ccc(C(F)(F)F)cn2)CC(F)(F)C1 (centres unmarked) [Example 137, {3,3-difluoro-1-[5-(trifluoromethyl)pyridin-2-yl]cyclobutyl}(pyridin-2-yl)-methanol]",4.87,>85,77,–
